Reference: patent US12643886B2 (Ontario Institute for Cancer Research (OICR), priority 2021, dated 2026)

Columns and labels:
NUAK2 (h) = molecular target: T1, NUAK2 (h) (Homo sapiens, UniProt Q9H093); experiment: NUAK2 enzymatic assay (radiometric, Eurofins); type: biochemical; conditions: full-length recombinant enzyme
T1 construct: This assay was done radiometrically using full-length, recombinant enzyme; purchased Eurofins
T1 sequence (Q9H093 1-628): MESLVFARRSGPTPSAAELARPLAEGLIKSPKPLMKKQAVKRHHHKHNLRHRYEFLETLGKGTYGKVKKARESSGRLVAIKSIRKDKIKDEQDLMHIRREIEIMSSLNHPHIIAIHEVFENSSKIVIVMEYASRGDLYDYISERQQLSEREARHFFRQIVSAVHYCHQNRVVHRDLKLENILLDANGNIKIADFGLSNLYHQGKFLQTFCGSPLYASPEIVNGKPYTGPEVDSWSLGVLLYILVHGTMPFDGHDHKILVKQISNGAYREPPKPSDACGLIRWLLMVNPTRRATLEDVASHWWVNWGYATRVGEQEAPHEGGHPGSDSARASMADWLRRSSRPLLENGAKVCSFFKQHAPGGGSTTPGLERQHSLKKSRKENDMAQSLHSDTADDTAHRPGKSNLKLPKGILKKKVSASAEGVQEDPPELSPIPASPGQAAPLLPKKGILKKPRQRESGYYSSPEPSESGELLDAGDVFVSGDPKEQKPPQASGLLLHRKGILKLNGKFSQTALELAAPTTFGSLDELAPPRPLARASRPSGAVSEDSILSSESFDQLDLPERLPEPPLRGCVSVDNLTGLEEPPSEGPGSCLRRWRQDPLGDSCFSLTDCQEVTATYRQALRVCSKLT
Outline: (§1)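 Full-length recombinant NUAK2 incubated 40 min at room temperature in 8 mM MOPS pH 7.0, 0.2 mM EDTA, 10 mM magnesium acetate, 300 μM peptide substrate and 33P-ATP. Stopped with 0.5% phosphoric acid; filter-bound label counted by scintillation. IC50 reported as ranges; NUAK1 and Aurora A served as counter-screens.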

NUAK1 = molecular target: T2, NUAK1 (Homo sapiens, UniProt O60285); experiment: Counter-screen against NUAK1; type: biochemical
T2 sequence (O60285 1-661): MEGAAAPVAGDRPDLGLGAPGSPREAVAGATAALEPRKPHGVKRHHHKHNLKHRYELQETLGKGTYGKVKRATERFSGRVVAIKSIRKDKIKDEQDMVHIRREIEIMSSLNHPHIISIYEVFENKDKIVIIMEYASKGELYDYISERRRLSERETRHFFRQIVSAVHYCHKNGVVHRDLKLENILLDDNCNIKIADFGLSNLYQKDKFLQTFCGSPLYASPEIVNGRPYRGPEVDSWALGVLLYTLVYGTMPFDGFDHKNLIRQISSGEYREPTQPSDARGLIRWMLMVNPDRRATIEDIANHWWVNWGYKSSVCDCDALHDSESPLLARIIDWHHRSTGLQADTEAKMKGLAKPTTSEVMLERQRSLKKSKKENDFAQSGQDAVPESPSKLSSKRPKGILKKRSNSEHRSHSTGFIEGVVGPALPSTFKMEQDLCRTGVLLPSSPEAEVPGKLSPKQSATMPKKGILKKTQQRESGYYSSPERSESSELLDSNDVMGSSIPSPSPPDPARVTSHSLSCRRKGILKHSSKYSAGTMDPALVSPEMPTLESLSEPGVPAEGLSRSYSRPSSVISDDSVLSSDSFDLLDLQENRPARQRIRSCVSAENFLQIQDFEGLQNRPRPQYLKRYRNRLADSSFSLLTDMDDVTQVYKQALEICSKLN
Outline: as §1

Aurora A = molecular target: T3, Aurora A (Homo sapiens, UniProt O14965); experiment: Counter-screen against Aurora A; type: biochemical; conditions: read-out: AUR-A (IC50)
T3 sequence (O14965 1-403): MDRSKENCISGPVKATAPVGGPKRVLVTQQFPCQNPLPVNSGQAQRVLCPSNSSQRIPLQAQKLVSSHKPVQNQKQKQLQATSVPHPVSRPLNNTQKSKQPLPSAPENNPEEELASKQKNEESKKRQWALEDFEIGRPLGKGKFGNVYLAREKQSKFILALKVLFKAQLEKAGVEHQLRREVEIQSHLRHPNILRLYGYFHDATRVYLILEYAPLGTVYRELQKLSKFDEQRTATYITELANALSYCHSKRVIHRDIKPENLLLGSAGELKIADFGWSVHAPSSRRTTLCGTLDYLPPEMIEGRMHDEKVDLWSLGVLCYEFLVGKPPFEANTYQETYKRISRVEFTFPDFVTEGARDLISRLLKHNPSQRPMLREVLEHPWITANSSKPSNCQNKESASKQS
Outline: as §1

MDA-MB-231 cells = experiment: Tumor cell growth inhibition assay (ATPlite, 5 days); type: cell-based; conditions: Homo sapiens, 120 h; breast tumor cell line MDA-MB-231, 5 days
Protocol: MDA-MB-231 cells were seeded into a 384-well plate at 1,000 cells/well in 50 μl medium (Alpha-MEM containing 10% FBS, […] Normocin, Invivogen and […] Gentamycin, Invitrogen). Plates were then incubated overnight for the cells to attach. An HP D300 digital dispenser was used to dose cells with DMSO or test compounds across a 16-point range of concentrations (high dose of 10 uM to low dose of 5 nM). Plates were incubated in a humidified 5% CO2 incubator at 37° C. After 5 days, plates were removed from the incubator and equilibrated to room temperature. An equal volume of ATPlite assay reagent was then added to each well, and samples processed according to manufacturer's instructions (Perkin Elmer). Luminescent signals were then measured using an Envision plate reader equipped with a US-Luminescence detector.

| SMILES | IC50 (NUAK2 (h)) | IC50 (NUAK1) | IC50 (Aurora A) | IC50 (MDA-MB-231 cells) |
| --- | --- | --- | --- | --- |
| COc1cc2c(cc1Nc1ncc(C(F)(F)F)c(Nc3cccc4c3C(=O)NC4)n1)CCNC2 [Compound I-27] | 11 to 100 nM | 11 to 100 nM | > 1000 nM | 36 nM |
| CN1CCCN(C2CCN(c3ccc(Nc4ncc(C(F)(F)F)c(Nc5cccc6c5C(=O)NC6)n4)c(OC(F)F)c3)CC2)CC1 [Compound I-69, 7-((2-((2-(difluoromethoxy)-4-(4-(4-methyl-1,4-diazepan-1-yl)piperidin-1-yl)phenyl)amino)-5-(trifluoromethyl)pyrimidin-4-yl)amino)isoindolin-1-one] | 0.1 to 10 nM | 11 to 100 nM | 101 to 1000 nM |  |
| O=C1NCc2cccc(Nc3nc(Nc4ccc(N5[C@@H]6CC[C@H]5CNC6)cc4OC(F)F)ncc3C(F)(F)F)c21 [Compound I-70, 7-((2-((4-((1R,5S)-3,8-diazabicyclo[3.2.1]octan-8-yl)-2-(difluoromethoxy)phenyl)amino)-5-(trifluoromethyl)pyrimidin-4-yl)amino)isoindolin-1-one] | 0.1 to 10 nM | 11 to 100 nM | 101 to 1000 nM |  |
| O=C1NCc2cccc(Nc3nc(Nc4ccc(N5C[C@H]6C[C@@H]5CN6)cc4OC(F)F)ncc3C(F)(F)F)c21 [Compound I-71, 7-((2-((4-((1R,4R)-2,5-diazabicyclo[2.2.1]heptan-2-yl)-2-(difluoromethoxy)phenyl)amino)-5-(trifluoromethyl)pyrimidin-4-yl)amino)isoindolin-1-one] | 0.1 to 10 nM | 11 to 100 nM | 101 to 1000 nM |  |
| O=C1NCc2cccc(Nc3nc(Nc4ccc(N5C[C@H]6C[C@@H]5CN6)cc4OC(F)F)ncc3Cl)c21 [Compound I-72, 7-((2-((4-((1R,4R)-2,5-diazabicyclo[2.2.1]heptan-2-yl)-2-(difluoromethoxy)phenyl)amino)-5-chloropyrimidin-4-yl)amino)isoindolin-1-one] | 0.1 to 10 nM | 11 to 100 nM | 101 to 1000 nM |  |
| CC(C)N1C[C@@H]2C[C@H]1CN2c1ccc(Nc2ncc(C(F)(F)F)c(Nc3cccc4c3C(=O)NC4)n2)c(OC(F)F)c1 [Compound I-73, 7-((2-((2-(difluoromethoxy)-4-((1S,4S)-5-isopropyl-2,5-diazabicyclo[2.2.1]heptan-2-yl)phenyl)amino)-5-(trifluoromethyl)pyrimidin-4-yl)amino)isoindolin-1-one] | 0.1 to 10 nM | 0.1 to 10 nM | 101 to 1000 nM |  |
| O=C1NCc2cccc(Nc3nc(Nc4ccc(N5CCCNCC5)cc4OC(F)F)ncc3Cl)c21 [Compound I-74, 7-((2-((4-(1,4-diazepan-1-yl)-2-(difluoromethoxy)phenyl)amino)-5-chloropyrimidin-4-yl)amino)isoindolin-1-one] | 0.1 to 10 nM | 11 to 100 nM | 101 to 1000 nM |  |
| O=C1NCc2cccc(Nc3nc(Nc4ccc(N5[C@@H]6CC[C@H]5CNC6)cc4OC(F)F)ncc3Cl)c21 [Compound I-75, 7-((2-((4-((1R,5S)-3,8-diazabicyclo[3.2.1]octan-8-yl)-2-(difluoromethoxy)phenyl)amino)-5-chloropyrimidin-4-yl)amino)isoindolin-1-one] | 0.1 to 10 nM | 0.1 to 10 nM | 0.1 to 10 nM |  |
| O=C1NCc2cccc(Nc3nc(Nc4ccc(N5C[C@H]6CNC[C@H]6C5)cc4OC(F)F)ncc3Cl)c21 [Compound I-76, 7-((5-chloro-2-((2-(difluoromethoxy)-4-((3aR,6aS)-hexahydropyrrolo[3,4-c]pyrrol-2(1H)-yl)phenyl)amino)pyrimidin-4-yl)amino)isoindolin-1-one] | 0.1 to 10 nM | 11 to 100 nM | 101 to 1000 nM |  |
| O=C1NCc2cccc(Nc3nc(Nc4ccc(N5CCC6(CCNCC6)CC5)cc4OC(F)F)ncc3Cl)c21 [Compound I-77, 7-((5-chloro-2-((2-(difluoromethoxy)-4-(3,9-diazaspiro[5.5]undecan-3-yl)phenyl)amino)pyrimidin-4-yl)amino)isoindolin-1-one] | 11 to 100 nM | 11 to 100 nM | 101 to 1000 nM |  |
| CCN1CCN(c2ccc(Nc3ncc(C(F)(F)F)c(Nc4cccc5c4C(=O)NC5)n3)c(OC(F)F)c2)CC1 [Compound I-78, 7-((2-((2-(difluoromethxoy)-4-(4-ethylpiperazin-1-yl)phenyl)amino)-5-(trifluoromethyl)pyrimidin-4-yl)amino)isoindolin-1-one] | 0.1 to 10 nM | 11 to 100 nM | 101 to 1000 nM |  |
| CN1CCN(c2ccc(Nc3ncc(C(F)(F)F)c(Nc4cccc5c4C(=O)NC5)n3)c(OC(F)F)c2)CC1 [Compound I-79, 7-((2-((2-(difluoromethxoy)-4-(4-methylpiperazin-1-yl)phenyl)amino)-5-(trifluoromethyl)pyrimidin-4-yl)amino)isoindolin-1-one] | 0.1 to 10 nM | 11 to 100 nM | 101 to 1000 nM |  |
| CCN1CCN(C2CCN(c3ccc(Nc4ncc(Cl)c(Nc5cccc6c5C(=O)NC6)n4)c(OC(F)F)c3)CC2)CC1 [Compound I-80, 7-((5-chloro-2-((2-(difluoromethoxy)-4-(4-(4-ethylpiperazin-1-yl)piperidin-1-yl)phenyl)amino)pyrimidin-4-yl)amino)isoindolin-1-one] | 11 to 100 nM | 11 to 100 nM | 101 to 1000 nM |  |
| CC(C)N1CCN(C2CCN(c3ccc(Nc4ncc(Cl)c(Nc5cccc6c5C(=O)NC6)n4)c(OC(F)F)c3)CC2)CC1 [Compound I-81, 7-((5-chloro-2-((2-(difluoromethoxy)-4-(4-(4-isopropylpiperazin-1-yl)piperidin-1-yl)phenyl)amino)pyrimidin-4-yl)amino)isoindolin-1-one] | 11 to 100 nM | 11 to 100 nM | 101 to 1000 nM |  |
| CN1C[C@@H]2C[C@H]1CN2c1ccc(Nc2ncc(C(F)(F)F)c(Nc3cccc4c3C(=O)NC4)n2)c(OC(F)F)c1 [Compound I-82, 7-((2-((2-(difluoromethoxy)-4-((1S,4S)-5-methyl-2,5-diazabicyclo[2.2.1]heptan-2-yl)phenyl)amino)-5-(trifluoromethyl)pyrimidin-4-yl)amino)isoindolin-1-one] | 0.1 to 10 nM | 11 to 100 nM | 101 to 1000 nM |  |
| Cc1cnc(Nc2ccc(N3CCN(C)CC3)cc2OC(F)F)nc1Nc1cccc2c1C(=O)NC2 [Compound I-83, 7-((2-((2-(difluoromethoxy)-4-(4-methylpiperazin-1-yl)phenyl)amino)-5-methylpyrimidin-4-yl)amino)isoindolin-1-one] | 0.1 to 10 nM | 11 to 100 nM | > 1000 nM |  |
